{"source": "patent US3972872A", "about": "“6-[α-(ω-Guanidinoalkanoylamido)acylamido]penicillanic acids” (Pfizer Inc., priority 1975, dated 1976)", "key": {"Pseudo. aeruginosa 173": {"test_system": "Pseudo. aeruginosa 173", "assay": "In vitro MIC, Pseudo. aeruginosa 173", "type": "cell-based, Pseudomonas aeruginosa", "conditions": "unit assumed", "source_text": "(§1) The in vitro spectra of a number of 6-[α-(ω-guanidinoalkanoylamido)acylamido]penicillanic acids of this invention against certain gram-negative bacteria are presented in Table I below. […] Th compounds of Table I have the formula"}, "Pseudo. aeruginosa 104": {"test_system": "Pseudo. aeruginosa 104", "assay": "In vitro MIC, Pseudo. aeruginosa 104", "type": "cell-based, Pseudomonas aeruginosa", "conditions": "unit assumed", "source_text": "as §1"}, "[1]": {"assay": "Urine levels and urinary recovery in dogs, single intramuscular dose"}, "Proteus vulgaris A059": {"test_system": "Proteus vulgaris A059", "assay": "In vitro MIC, Proteus vulgaris A059", "type": "cell-based", "conditions": "unit assumed", "source_text": "as §1"}, "E. coli": {"test_system": "E. coli", "assay": "PD50 versus acute systemic E. coli infection in mice", "type": "in vivo", "conditions": "for ED50: Escherichia coli, 96 h, E. coli, mice", "source_text": "(§2) Additionally, the compounds of this invention are active versus gram-positive and gram-negative bacteria in vivo via the parenteral route of administration in animals, including man. Their in vivo activity in animals, including man, by the oral route of administration is more limited as regards susceptible organisms. Nevertheless, oral in vivo activity against Escherichia coli and Staphylococcus aureus is a common property of many compounds of this invention. Table II below presents the comparative in vivo spectra of several compounds within the scope of this invention against D-α-aminobenzylpenicillin (Ampicillin).\n(§3) The acute systemic infections in mice were produced by the intraperitoneal inoculation of standardized cultures suspended in 5% hog gastric mucin. Treatment with the drugs was initiated 0.5 hours after inoculation of the infecting organism. A second dose was administered 4 hours later. The PD50 values were calculated after a hold period of 4 days."}, "Proteus rettgeri B006": {"test_system": "Proteus rettgeri B006", "assay": "In vitro MIC, Proteus rettgeri B006", "type": "cell-based", "conditions": "unit assumed", "source_text": "(§4) The in vitro activity of the herein-described compounds renders them useful for topical application in the form of ointments, creams and the like, or for sterilization purposes, e.g., sick room utensils.\nas §1"}, "P. aeruginosa": {"test_system": "P. aeruginosa", "assay": "PD50 versus acute systemic P. aeruginosa infection in mice", "type": "in vivo", "conditions": "for ED50: Pseudomonas aeruginosa, 96 h, read-out: PD50; for activity against Pseudomonas aeruginosa (in words): in vivo", "source_text": "as §2, §3"}, "Pseudo. aeruginosa 490": {"test_system": "Pseudo. aeruginosa 490", "assay": "In vitro MIC, Pseudo. aeruginosa 490", "type": "cell-based, Pseudomonas aeruginosa", "conditions": "unit assumed", "source_text": "as §1"}, "Escherichia coli 266": {"test_system": "Escherichia coli 266", "assay": "In vivo protection of mice versus Escherichia coli 266", "conditions": "Escherichia coli, 266, sc, 96 h, read-out: % Protection", "source_text": "as §2, §3"}, "Serratia marcescens A001": {"test_system": "Serratia marcescens A001", "assay": "In vitro MIC, Serratia marcescens A001", "type": "cell-based", "conditions": "unit assumed", "source_text": "as §1"}, "Proteus mirabilis C015": {"test_system": "Proteus mirabilis C015", "assay": "In vitro MIC, Proteus mirabilis C015", "type": "cell-based", "conditions": "unit assumed", "source_text": "as §1"}, "[2]": {"assay": "Serum levels in dogs, single intramuscular dose", "conditions": "for Serum Levels: intramuscular 25 mg./kg."}, "S. aureus": {"test_system": "S. aureus", "assay": "PD50 versus acute systemic S. aureus infection in mice", "type": "in vivo", "conditions": "for ED50: Staphylococcus aureus, 96 h, S. aureus, mice", "source_text": "as §2, §3"}, "Proteus mirabilis C020": {"test_system": "Proteus mirabilis C020", "assay": "In vitro MIC, Proteus mirabilis C020", "type": "cell-based", "conditions": "unit assumed", "source_text": "as §4, §1"}, "E. coli 266": {"test_system": "E. coli 266", "assay": "In vitro MIC, E. coli 266, two-fold serial dilution", "type": "cell-based, Escherichia coli", "conditions": "unit assumed", "source_text": "as §1"}, "in vivo": {"assay": "in vivo", "conditions": "dog, im, 25 mg/kg"}}, "note": "Like-named read-outs stand apart in the source and are kept apart here."}
{"smiles": "CC1(C)S[C@@H]2[C@H](NC(=O)[C@H](NC(=O)CNC(=N)N)c3ccccc3)C(=O)N2[C@H]1C(=O)O", "note": "[A, 6-[D-2-Phenyl-2-(Guanidinoacetamido)Acetamido]Penicillanic Acid]", "values": [{"measurement": "MIC", "setting": "Pseudo. aeruginosa 173", "value": 1.56, "unit": "µg/mL"}, {"measurement": "MIC", "setting": "Pseudo. aeruginosa 104", "value": 1.56, "unit": "µg/mL"}, {"measurement": "concentration at 0.5 h", "setting": "[1]; dog, urine, im, 25 mg/kg", "value": 366, "unit": "µg/mL"}, {"measurement": "concentration at 1 h", "setting": "[1]; dog, urine, im, 25 mg/kg", "value": 710, "unit": "µg/mL"}, {"measurement": "concentration at 2 h", "setting": "[1]; dog, urine, im, 25 mg/kg", "value": 1020, "unit": "µg/mL"}, {"measurement": "concentration at 3 h", "setting": "[1]; dog, urine, im, 25 mg/kg", "value": 554, "unit": "µg/mL"}, {"measurement": "concentration at 4 h", "setting": "[1]; dog, urine, im, 25 mg/kg", "value": 219, "unit": "µg/mL"}, {"measurement": "concentration at 5 h", "setting": "[1]; dog, urine, im, 25 mg/kg", "value": 130, "unit": "µg/mL"}, {"measurement": "dose excreted", "setting": "[1]; dog, urine, im, 25 mg/kg", "value": 35.4, "unit": "%"}, {"measurement": "Concentrations in Urine", "setting": "[1]; dogs, intramuscular 25 mg./kg., 0 hours", "value": 0, "unit": "µg/mL"}, {"measurement": "total urinary recovery of drug compared with [B] (in words)", "setting": "[1]; parenteral, dogs", "value": "clearly superior"}, {"measurement": "MIC", "setting": "Proteus vulgaris A059", "value": 1.56, "unit": "µg/mL"}, {"measurement": "ED50", "setting": "E. coli; oral", "value": 50, "unit": "mg/kg"}, {"measurement": "ED50", "setting": "E. coli; sc, subcutaneous", "value": 6, "unit": "mg/kg"}, {"measurement": "in vivo oral activity against E. coli (in words)", "setting": "E. coli; oral", "value": "dual in vivo activity"}, {"measurement": "MIC", "setting": "Proteus rettgeri B006", "value": 12.5, "unit": "µg/mL"}, {"measurement": "ED50", "setting": "P. aeruginosa; po", "value": "> 200", "unit": "mg/kg"}, {"measurement": "ED50", "setting": "P. aeruginosa; sc", "value": "41 ± 13", "unit": "mg/kg"}, {"measurement": "activity against Pseudomonas aeruginosa (in words)", "setting": "P. aeruginosa; mice", "value": "active"}, {"measurement": "MIC", "setting": "Pseudo. aeruginosa 490", "value": 1.56, "unit": "µg/mL"}, {"measurement": "responders at 50 mg/kg", "setting": "Escherichia coli 266", "value": 100, "unit": "%"}, {"measurement": "MIC", "setting": "Serratia marcescens A001", "value": 6.25, "unit": "µg/mL"}, {"measurement": "MIC", "setting": "Proteus mirabilis C015", "value": 1.56, "unit": "µg/mL"}, {"measurement": "concentration at 1 h", "setting": "[2]; dog, serum, im, 0.05 mg/kg", "value": 78, "unit": "µg/mL"}, {"measurement": "concentration at 2 h", "setting": "[2]; dog, serum, im, 0.05 mg/kg", "value": 48000, "unit": "ng/mL"}, {"measurement": "concentration at 0.5 h", "setting": "[2]; dog, serum, im, 25 mg/kg", "value": 30400, "unit": "ng/mL"}, {"measurement": "concentration at 1 h", "setting": "[2]; dog, serum, im, 25 mg/kg", "value": 26.2, "unit": "µg/mL"}, {"measurement": "concentration at 2 h", "setting": "[2]; dog, serum, im, 25 mg/kg", "value": 10300, "unit": "ng/mL"}, {"measurement": "concentration at 3 h", "setting": "[2]; dog, serum, im, 25 mg/kg", "value": 2100, "unit": "ng/mL"}, {"measurement": "Serum Levels", "setting": "[2]; dogs, 0 hours", "value": 0, "unit": "µg/mL"}, {"measurement": "Serum Levels", "setting": "[2]; dogs, 4 hours", "value": 0, "unit": "µg/mL"}, {"measurement": "Serum Levels", "setting": "[2]; dogs, 6 hours", "value": 0, "unit": "µg/mL"}, {"measurement": "blood levels of drug compared with [B] (in words)", "setting": "[2]; parenteral, dogs", "value": "clearly superior"}, {"measurement": "ED50", "setting": "S. aureus; oral", "value": 68, "unit": "mg/kg"}, {"measurement": "ED50", "setting": "S. aureus; sc, subcutaneous", "value": "13 ± 3.9", "unit": "mg/kg"}, {"measurement": "in vivo oral activity against S. aureus (in words)", "setting": "S. aureus; oral", "value": "dual in vivo activity"}, {"measurement": "MIC", "setting": "Proteus mirabilis C020", "value": 1.56, "unit": "µg/mL"}, {"measurement": "MIC", "setting": "E. coli 266", "value": 1.56, "unit": "µg/mL"}]}
{"smiles": "CC1(C)S[C@@H]2[C@H](NC(=O)[C@H](NC(=O)NC(=N)N)c3ccccc3)C(=O)N2[C@H]1C(=O)O", "note": "[B, 6-[D-2-phenyl-2-(3-guanylureido)acetamido]penicillanic acid]", "values": [{"measurement": "MIC", "setting": "Pseudo. aeruginosa 173", "value": 1.5, "unit": "µg/mL"}, {"measurement": "MIC", "setting": "Pseudo. aeruginosa 104", "value": 2.5, "unit": "µg/mL"}, {"measurement": "MIC", "setting": "Proteus vulgaris A059", "value": 1.56, "unit": "µg/mL"}, {"measurement": "ED50", "setting": "E. coli; oral", "value": "> 200", "unit": "mg/kg"}, {"measurement": "ED50", "setting": "E. coli; sc, subcutaneous", "value": "15 ± 6.5", "unit": "mg/kg"}, {"measurement": "in vivo oral activity against E. coli (in words)", "setting": "E. coli; oral", "value": "lacks oral activity"}, {"measurement": "ED50", "setting": "P. aeruginosa; P. aeruginosa, oral, mice", "value": "> 200", "unit": "mg/kg"}, {"measurement": "ED50", "setting": "P. aeruginosa; sc, P. aeruginosa, subcutaneous, mice", "value": "41 ± 13", "unit": "mg/kg"}, {"measurement": "activity against Pseudomonas aeruginosa (in words)", "setting": "P. aeruginosa; mice", "value": "active"}, {"measurement": "MIC", "setting": "Pseudo. aeruginosa 490", "value": 1.5, "unit": "µg/mL"}, {"measurement": "responders at 50 mg/kg", "setting": "Escherichia coli 266; 50 mg./kg., mice, subcutaneous route", "value": 100, "unit": "%"}, {"measurement": "concentration at 0.5 h", "setting": "in vivo", "value": 3500, "unit": "ng/mL"}, {"measurement": "concentration at 1 h", "setting": "in vivo", "value": 3600, "unit": "ng/mL"}, {"measurement": "concentration at 2 h", "setting": "in vivo", "value": 800, "unit": "ng/mL"}, {"measurement": "MIC", "setting": "Serratia marcescens A001", "value": 6.25, "unit": "µg/mL"}, {"measurement": "MIC", "setting": "Proteus mirabilis C015", "value": 0.78, "unit": "µg/mL"}, {"measurement": "ED50", "setting": "S. aureus; oral", "value": "> 100", "unit": "mg/kg"}, {"measurement": "ED50", "setting": "S. aureus; sc, subcutaneous", "value": "18 ± 9.8", "unit": "mg/kg"}, {"measurement": "in vivo oral activity against S. aureus (in words)", "setting": "S. aureus; oral", "value": "lacks oral activity"}, {"measurement": "MIC", "setting": "E. coli 266", "value": 3.1, "unit": "µg/mL"}]}
